Like-named read-outs stand apart in the source and are kept apart here.
Columns and labels:
[1] = target: T1, LFA-1/ICAM-1 interactions (Homo sapiens, UniProt P20701); experiment: Jurkat or Hut 78 cell adhesion to ICAM-1; format: cell-based
T1 construct: host or cells: Jurkat or Hut 78 cells
Protocol: Jurkat or Hut 78 cells obtained from ATCC and cultured in RPMI-1640 supplemented with 10% FCS, L-glutamine, non essential amino acids and 0.05 mM 2-mercaptoethanol, are centrifuged, washed once in PBS, and resuspended at 0.5×10^6 cells/ml in binding buffer (1.5% BSA, 5 mM glucose, 2 mM MgCl2, […] MnCl2 in TBS, pH 7) containing 5 μg/ml BCECF-AM (Molecular Probes). The cells are incubated at 37° C. for 30-45 min. in the dark. Then the cells are centrifuged and resuspended in binding buffer by pipetting and immediately used for experiment.
Flat well microtiter plates (NUNC Maxisorp) are coated with 1 μg/ml goat anti-mouse Cκ (Bioreba, South.Biot.) in carbonate buffer (15 mM Na2CO3, 35 mM NaHCO3, pH8.0) 2 hours at 37° C. The plates are emptied and blocked with 1.5% BSA and 0.5% Tween-20 in carbonate buffer for 90 min. at 37° C. The plates are emptied and washed once in TBS containing, 1.5% BSA. Baculovirus derived ICAM-1 mouse Cκ fusion protein (100 ng/ml in TBS/1.5% BSA) is added to the wells. The plates are incubated for 90 min. at 37° C. After three washes with TBS/1.5% BSA, the compound to be tested is diluted in binding buffer (as above but free from BSA and glucose) and added to the wells. Then 100 000 Jurkat or Hut 78 cells/well are added and allowed to adhere for 30 min. at 37° C. Adherent cells are separated from non-adherent cells by 2-4 washes using binding buffer. Adherent cells are quantified with a fluorescence ELISA reader CytofluorII with the filters set at 485 nm and 530 nm emission.

[2] = system: thioglycollate induced neutrophil migration; experiment: Murine thioglycollate induced peritonitis; format: in vivo; settings: s.c., mice
Protocol: Thioglycollate is injected i.p. to mice and immediately thereafter the compound to be tested is given s.c. The mice are killed after 4 hours, the peritoneal cavity lavaged and the total number of neutrophils in the lavage fluid is determined.
In this assay, the compounds of the invention, e.g. mevinolins inhibit thioglycollate induced neutrophil migration when administered s.c. at a dose of from 0.001-50 mg/kg.

LFA-1 I-domain = target: T2, LFA-1 I-domain (Homo sapiens, UniProt P20701); experiment: X-ray analysis of the complex of LFA-1 I-domain with mevinolin; format: binding
T2 construct: amino acid residues 128 to 309 of the α-chain of LFA-1 which corresponds to the I-domain
T2 sequence (P20701 153-334): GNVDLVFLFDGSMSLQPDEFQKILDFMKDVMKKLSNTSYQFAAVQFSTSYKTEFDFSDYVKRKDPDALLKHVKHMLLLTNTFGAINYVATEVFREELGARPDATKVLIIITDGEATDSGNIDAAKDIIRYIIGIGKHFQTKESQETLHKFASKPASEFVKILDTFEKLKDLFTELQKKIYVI
Protocol: The complex, LFA-1 I-domain/mevinolin, is prepared by adding mevinolin (100 mM solution in DMSO) to the protein solution (12.7 mg/ml, 100 mM MgSO4), followed by crystallization. The structure is solved by molecular replacement (using the coordinates of apo LFA-1 I domain, A. Qu & D. Leahy, above) and has been refined to a R factor of 19.4% (Rfree=25.9%) using X-ray amplitudes in the resolution range 8 Å-2.6 Å. The final model contains 2×182 amino acids (amino acid residues 128 to 309 of the α-chain of LFA-1 which corresponds to the I-domain), 2 mevinolin molecules and a total of 86 water molecules.

[3] = Jurkat cells, adhesion to ICAM-1, read-out: IC50 in the Jurkat Cell Assay

T1 sequence (P20701 26-1170): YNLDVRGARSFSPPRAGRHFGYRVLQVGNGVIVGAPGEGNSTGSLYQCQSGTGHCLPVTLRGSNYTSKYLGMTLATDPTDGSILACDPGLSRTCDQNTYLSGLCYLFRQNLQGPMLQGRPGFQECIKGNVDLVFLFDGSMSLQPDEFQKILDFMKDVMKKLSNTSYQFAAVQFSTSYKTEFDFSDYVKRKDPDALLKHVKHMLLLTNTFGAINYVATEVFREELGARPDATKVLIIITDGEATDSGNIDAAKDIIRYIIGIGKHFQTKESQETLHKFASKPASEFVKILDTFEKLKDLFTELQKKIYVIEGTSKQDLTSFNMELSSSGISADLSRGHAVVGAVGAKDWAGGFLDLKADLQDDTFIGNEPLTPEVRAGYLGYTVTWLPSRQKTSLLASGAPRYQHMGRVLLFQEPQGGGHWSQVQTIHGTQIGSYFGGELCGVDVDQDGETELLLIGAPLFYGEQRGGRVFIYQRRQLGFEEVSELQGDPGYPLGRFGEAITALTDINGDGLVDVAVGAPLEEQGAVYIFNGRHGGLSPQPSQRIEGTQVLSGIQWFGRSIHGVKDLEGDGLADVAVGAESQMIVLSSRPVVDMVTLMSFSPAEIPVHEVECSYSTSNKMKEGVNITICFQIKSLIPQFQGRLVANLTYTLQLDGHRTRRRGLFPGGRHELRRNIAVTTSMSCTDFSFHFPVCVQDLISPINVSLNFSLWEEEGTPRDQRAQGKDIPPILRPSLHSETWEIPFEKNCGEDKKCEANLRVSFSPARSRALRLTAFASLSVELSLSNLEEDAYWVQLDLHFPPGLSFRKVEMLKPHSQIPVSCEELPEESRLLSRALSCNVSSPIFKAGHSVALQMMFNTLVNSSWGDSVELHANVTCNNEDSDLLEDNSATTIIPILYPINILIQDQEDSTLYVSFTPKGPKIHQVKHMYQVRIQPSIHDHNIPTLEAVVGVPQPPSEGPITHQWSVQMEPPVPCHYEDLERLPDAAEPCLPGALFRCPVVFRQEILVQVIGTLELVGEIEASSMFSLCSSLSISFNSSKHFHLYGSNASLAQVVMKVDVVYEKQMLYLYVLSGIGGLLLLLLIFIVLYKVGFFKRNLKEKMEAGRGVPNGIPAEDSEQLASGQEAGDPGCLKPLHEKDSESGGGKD
T1 sequence (P05107 23-769 partner): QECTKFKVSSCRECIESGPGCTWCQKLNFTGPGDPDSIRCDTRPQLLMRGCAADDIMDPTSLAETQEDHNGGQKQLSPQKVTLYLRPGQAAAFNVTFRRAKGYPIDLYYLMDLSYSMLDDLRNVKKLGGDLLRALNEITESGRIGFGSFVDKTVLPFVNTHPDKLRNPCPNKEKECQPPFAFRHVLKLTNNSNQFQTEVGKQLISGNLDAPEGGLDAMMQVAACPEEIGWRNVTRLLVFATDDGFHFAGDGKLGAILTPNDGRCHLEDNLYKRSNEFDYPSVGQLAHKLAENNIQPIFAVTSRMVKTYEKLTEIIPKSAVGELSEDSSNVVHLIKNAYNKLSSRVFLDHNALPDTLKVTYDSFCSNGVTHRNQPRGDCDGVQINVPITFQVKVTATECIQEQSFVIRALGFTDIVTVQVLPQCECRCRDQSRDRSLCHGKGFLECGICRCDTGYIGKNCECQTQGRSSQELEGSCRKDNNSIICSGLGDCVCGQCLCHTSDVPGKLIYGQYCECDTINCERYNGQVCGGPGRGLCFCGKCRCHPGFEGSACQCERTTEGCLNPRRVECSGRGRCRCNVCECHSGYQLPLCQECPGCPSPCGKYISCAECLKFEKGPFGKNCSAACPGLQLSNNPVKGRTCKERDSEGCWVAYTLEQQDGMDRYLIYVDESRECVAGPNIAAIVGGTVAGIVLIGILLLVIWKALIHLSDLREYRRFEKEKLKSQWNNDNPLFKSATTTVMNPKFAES

Structure (SMILES): CCC(C)C(=O)OC1CC(C)C=C2C=CC(C)C(CCC(O)CC(CC(=O)NCCO)NCCO)C21 (stereo not shown) [Example 6, 2-Methyl-butyric Acid 8-[3-Hydroxy-5-(2-hydroxy-ethylamino)-6-(2-hydroxy-ethylcarbamoyl)-hexyl]-3,7-dimethyl-1,2,3,7,8,8a-hexahydro-naphthalen-1-yl Ester]
- IC50 [1, 3]: 4000 nM
- inhibition of neutrophil migration ([2]; 1 mg/kg): fully inhibit

Structure (SMILES): CC[C@H](C)C(=O)O[C@H]1C[C@@H](C)C=C2C=C[C@H](C)[C@H](CCC(O)CC(O)CC(=O)NCc3ccccc3OC)[C@H]21 (stereo partly shown) [Example 15]
- IC50 [1, 3]: 2200 nM

Structure (SMILES): CC[C@H](C)C(=O)O[C@H]1C[C@@H](C)C=C2C=C[C@H](C)[C@H](CCC(O)CC(O)CC(=O)N3CCC4(CC3)OCCO4)[C@H]21 (stereo partly shown) [Example 33]
- IC50 [1]: 1200 nM
- inhibition of neutrophil migration ([2]; 0.1 mg/kg): fully inhibit

Structure (SMILES): CC[C@H](C)C(=O)O[C@H]1C[C@@H](C)C=C2C=C[C@H](C)[C@H](CC[C@@H]3C[C@@H](O)CC(=O)O3)[C@H]21 [mevinolin, Mevinolin]
- binding to the MIDAS-site (LFA-1 I-domain; X-ray analysis of the complex): does not bind to the MIDAS-site
- binding to the LFA-1 I-domain (south pole pocket) (LFA-1 I-domain; between the C-terminal helix α7 and one side of the β-sheet): binds to the LFA-1 I-domain

Reference: US6630492B1, “Lymphocyte function antigen-1 antagonists” (Novartis AG, priority 1997, dated 2003)
